For 10 compounds, melting point results are on record in patent US20070275954A1 (published 2007).

On to `CNC1=Nc2ncccc2C(c2cnc[nH]2)=NC1c1cccs1` (stereo not shown), for which the melting point (in general, the temperature of the solid-liquid transition) lay within 280 to 290 °C.

As to `Cn1ccnc1C1=NC(c2cccs2)C(N2CCC2)=Nc2ncccc21` (stereo not shown), the melting point was in the range of 215 to 217 °C.

`CNC1=Nc2ncccc2C(c2ccc[nH]2)=NC1c1cccs1` (stereo not shown) registered a melting point of 165 to 170 °C.

For `CNC1=Nc2ncccc2C(c2cn[nH]c2)=NC1c1cccs1` (stereo not shown), the melting point was 187 to 194 °C.

Regarding `CNC1=Nc2ncccc2C(c2cc[nH]n2)=NC1c1cccs1` (stereo not shown), the melting point was 269 to 272 °C.

As for `CNC1=Nc2ncccc2C(c2ccoc2)=NC1c1cccs1` (stereo not shown), the melting point is 110 to 114 °C.

`c1csc(C2N=C(c3cc[nH]c3)c3cccnc3N=C2N2CCC2)c1` (stereo not shown) gave a melting point of 168 to 172 °C.

In turn, `CNC1=Nc2ncccc2C(c2ccsc2)=NC1c1cccs1` (stereo not shown) returned a melting point of 85 to 88 °C.

Take `c1csc(C2N=C(c3ccsc3)c3cccnc3N=C2N2CCC2)c1` (stereo not shown): the melting point was in the range of 90 to 95 °C.

`c1csc(C2N=C(c3ccsc3)c3cccnc3N=C2NC2CC2)c1` (stereo not shown): the melting point is 90 to 96 °C.
